What all share (format): functional
In one test the test system is SW480. The experiment in a line: Inhibitory activity against SW480 cell line; inactive. To be noted: Homo sapiens, read-out: ID50 (the source's name).
The test system of a further test is A549. The experiment in a line: Inhibitory activity against A549 cell line; inactive. Particulars: Homo sapiens, read-out: ID50 (the source's name).
Another test has as its system KB. The experiment in a line: Inhibitory activity against protein linked DNA breaks in KB cells at 25 ug/mL after 1 hour. To be noted: Homo sapiens.
In another test the test system is BT-549. The experiment in a line: Inhibitory activity against BT549 cell line; inactive. Particulars: Homo sapiens, read-out: ID50 (the source's name).
Another test concerns PLC. The experiment in a line: Inhibitory activity against PLC cell line; inactive. Particulars: Homo sapiens, read-out: ID50 (the source's name).

pIC50: −log10 of the molar value.

Results on 7 compounds are retold here after ChEMBL document CHEMBL1128143, “The synthesis of 5-substituted camptothecins as potential inhibitors of DNA topoisomerase I” (1995).

The inhibition is the relative decrease from the control value, in per cent. For the compound `CC[C@@]1(O)C(=O)OCc2c1cc1n(c2=O)[C@H](C(=O)c2cc(OC)c(OC)c(OC)c2)c2cc3ccccc3nc2-1`, the pIC50 in the test on SW480, with A549, in the test with BT-549 and in the test on PLC was less than 5.30 in each case. In addition, the inhibition at 25 µg/mL in the test on KB amounted to 0%.

Consider `CC[C@@]1(O)C(=O)OCc2c1cc1n(c2=O)Cc2c-1nc1ccccc1c2C=O`, for which the inhibition at 25 µg/mL with KB came out at 107%.

Regarding `CC[C@@]1(O)C(=O)OCc2c1cc1n(c2=O)[C@H](CO)c2cc3ccccc3nc2-1`, the pIC50 with SW480, in the test on A549, in the test with BT-549 and in the test with PLC was less than 5.30 each time. Further, the inhibition at 25 µg/mL with KB was 20.4%.

Consider `CC[C@@]1(O)C(=O)OCc2c1cc1n(c2=O)Cc2cc3ccccc3nc2-1` [CAMPTOTHECIN], for which the inhibition at 25 µg/mL in the test on KB came out at 100%.

As to `CC[C@@]1(O)C(=O)OCc2c1cc1n(c2=O)[C@@H](CO)c2cc3ccccc3nc2-1`, the pIC50 in the test on SW480, in the test with A549, in the test with BT-549 and in the test on PLC was less than 5.30 throughout. Besides, the inhibition at 25 µg/mL in the test with KB turned out to be 8.7%.

For `CC[C@@]1(O)C(=O)OCc2c1cc1n(c2=O)C(CO)(CO)c2cc3ccccc3nc2-1`, the pIC50 in the test on SW480, in the test with A549, in the test with BT-549 and with PLC was less than 5.30 each time. Moreover, the inhibition at 25 µg/mL with KB was 0%.

Turning to `CC[C@@]1(O)C(=O)OCc2c1cc1n(c2=O)Cc2c-1nc1ccccc1c2CO`, the inhibition at 25 µg/mL in the test with KB was determined as 97.6%.
